Test results from patent US7358359B2, “Antibacterial agents” (University of Washington, priority 2003, dated 2008).
≈ marks a conversion by molar mass, not a printed value.

Key:
E. coli 25922 = experiment: MIC broth microdilution, standard panel: E. coli 25922; assay type: cell-based; settings: Escherichia coli, standard panel of organisms
Experimental: (§1) Bacterial isolates were cultivated from −70° C. frozen stocks by two consecutive overnight passages at 35° C. in ambient air on 5% blood agar (Remel, Lenexa, Kans.). Clinical isolates tested were from a collection composed of isolates collected during clinical trials and recent clinical isolates obtained from various geographically diverse hospitals in the US. Quality control and primary panel strains were from the American Type Culture Collection (ATCC; Rockville, Md.), with the exception of P. aeruginosa PAO200, a strain with a deletion of the mexABoprM genes that was received from Dr. H. Schweizer. […] Strain Z61 (ATCC 35151) is also hypersusceptible to antibacterials. It is thought that the hypersusceptibility of this strain is the result of increased permeability of its outer membrane (Angus B L et al, Antimicrobial Agents and Chemotherapy 1982 21,299-309: Outer membrane permeability in Pseudomonas aeruginosa: Comparison of a wild-type with an antibacterial-supersusceptible mutant).
(§2) Minimum Inhibitory Concentrations (MICs) were determined by the broth microdilution method in accordance with the National Committee for Clinical Laboratory Standards (NCCLS) guidelines. In brief, organism suspensions were are adjusted to a 0.5 McFarland standard to yield a final inoculum between 3×10^5 and 7×10^5 colony-forming units (CFU)/mL. Drug dilutions and inocula were made in sterile, cation adjusted Mueller-Hinton Broth (Remel). An inoculum volume of 100 μl was added to wells containing 100 μl of broth with 2-fold serial dilutions of drug. All inoculated microdilution trays were incubated in ambient air at 35° C. for 18-24 hours. Following incubation, the lowest concentration of the drug that prevented visible growth was recorded as the MIC. Performance of the assay was monitored by the use of laboratory quality-control strains against tobramycin, that has a defined MIC spectrum, in accordance with NCCLS guidelines.

Proteus mirabilis = experiment: MIC vs enteric organisms: Proteus mirabilis; assay type: cell-based; settings: P. mir., MIC key class
Experimental: (§3) Bacterial isolates were cultivated from −70° C. frozen stocks by two consecutive overnight passages at 35° C. in ambient air on 5% blood agar (Remel, Lenexa, Kans.). Clinical isolates tested were from a collection composed of isolates collected during clinical trials and recent clinical isolates obtained from various geographically diverse hospitals in the US. Quality control and primary panel strains were from the American Type Culture Collection (ATCC; Rockville, Md.), with the exception of P. aeruginosa PAO200, a strain with a deletion of the mexABoprM genes that was received from Dr. H. Schweizer.
as §2, with “MIC.” for “MIC. Performance of the assay was monitored by the use of laboratory quality-control strains against tobramycin, that has a defined MIC spectrum, in accordance with NCCLS guidelines.”

Serratia marcescens = experiment: MIC vs enteric organisms: Serratia marcescens; assay type: cell-based; settings: S. marc., MIC key class
Experimental: as §3
as §2, with “MIC.” for “MIC. Performance of the assay was monitored by the use of laboratory quality-control strains against tobramycin, that has a defined MIC spectrum, in accordance with NCCLS guidelines.”

Klebsiella pneumoniae = experiment: MIC vs enteric organisms: Klebsiella pneumoniae; assay type: cell-based; settings: K. pneu., MIC key class
Experimental: as §3
as §2, with “MIC.” for “MIC. Performance of the assay was monitored by the use of laboratory quality-control strains against tobramycin, that has a defined MIC spectrum, in accordance with NCCLS guidelines.”

[1] = tested on: Pseudomonas aeruginosa cystic fibrosis isolate 3198; experiment: MIC vs cystic fibrosis isolate of P. aeruginosa 3198 (sensitive to most antibacterials); assay type: cell-based; settings: strain 3198, Sensitive, LpxC inhibitors, MIC key class
Experimental: as §3
as §2, with “MIC.” for “MIC. Performance of the assay was monitored by the use of laboratory quality-control strains against tobramycin, that has a defined MIC spectrum, in accordance with NCCLS guidelines.”

Enterobacter cloacae = experiment: MIC vs enteric organisms: Enterobacter cloacae; assay type: cell-based; settings: E. clo., MIC key class
Experimental: as §3
as §2, with “MIC.” for “MIC. Performance of the assay was monitored by the use of laboratory quality-control strains against tobramycin, that has a defined MIC spectrum, in accordance with NCCLS guidelines.”

[2] = tested on: Pseudomonas aeruginosa cystic fibrosis isolate 3317; experiment: MIC vs cystic fibrosis isolate of P. aeruginosa 3317 (resistant to aztreonam); assay type: cell-based; settings: strain 3317, Aztr. R, LpxC inhibitors, MIC key class
Experimental: as §3
as §2, with “MIC.” for “MIC. Performance of the assay was monitored by the use of laboratory quality-control strains against tobramycin, that has a defined MIC spectrum, in accordance with NCCLS guidelines.”

P. aeruginosa 27853 = experiment: MIC broth microdilution, standard panel: P. aeruginosa 27853; assay type: cell-based; settings: Pseudomonas aeruginosa, standard panel of organisms
Experimental: as §1, §2

[3] = tested on: Pseudomonas aeruginosa cystic fibrosis isolate 1145; experiment: microbe, parasite or virus in culture; assay type: cell-based; settings: strain 1145, MDR, LpxC inhibitors, MIC key class, read-out: MIC
Experimental: as §3
as §2, with “MIC.” for “MIC. Performance of the assay was monitored by the use of laboratory quality-control strains against tobramycin, that has a defined MIC spectrum, in accordance with NCCLS guidelines.”

[4] = tested on: Pseudomonas aeruginosa cystic fibrosis isolate 3206; experiment: microbe, parasite or virus in culture; assay type: cell-based; settings: strain 3206, MDR, LpxC inhibitors, MIC key class, read-out: MIC
Experimental: as §3
as §2, with “MIC.” for “MIC. Performance of the assay was monitored by the use of laboratory quality-control strains against tobramycin, that has a defined MIC spectrum, in accordance with NCCLS guidelines.”

[5] = tested on: non-CF clinical isolates of P. aeruginosa; experiment: MIC vs non-CF clinical isolates of P. aeruginosa; assay type: cell-based; settings: Pseudomonas aeruginosa, MIC key class
Experimental: as §1, §2

Burkholderia cepacia = experiment: MIC vs non-fermenting organisms: Burkholderia cepacia; assay type: cell-based; settings: Burkholderia cepacia, B. cepacia; MIC key class; read-out: MIC
Experimental: as §3
as §2, with “MIC.” for “MIC. Performance of the assay was monitored by the use of laboratory quality-control strains against tobramycin, that has a defined MIC spectrum, in accordance with NCCLS guidelines.”

P. aeruginosa LpxC = target: T1, P. aeruginosa LpxC (Pseudomonas aeruginosa, UniProt P47205); experiment: P. aeruginosa LpxC Inhibition Assay; assay type: biochemical; settings: 2 nM P. aeruginosa LpxC, 90 min, room temperature; read-out: IC50 (nM), Enzyme inhibitory activity
T1 sequence (P47205 1-303): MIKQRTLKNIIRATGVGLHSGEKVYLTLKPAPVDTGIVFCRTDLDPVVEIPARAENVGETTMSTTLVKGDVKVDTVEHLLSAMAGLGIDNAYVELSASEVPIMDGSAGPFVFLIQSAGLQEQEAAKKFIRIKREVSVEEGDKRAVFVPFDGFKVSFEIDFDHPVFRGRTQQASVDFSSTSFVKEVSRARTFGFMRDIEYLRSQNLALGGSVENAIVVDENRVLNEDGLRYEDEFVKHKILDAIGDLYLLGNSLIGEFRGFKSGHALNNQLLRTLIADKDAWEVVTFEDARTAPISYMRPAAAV
Experimental: The assay followed the general method of Hyland et al (Journal of Bacteriology 1997 179, 2029-2037: Cloning, expression and purification of UDP-3-O-acyl-GlcNAc deacetylase from Pseudomonas aeruginosa: a metalloamidase of the lipid A biosynthesis pathway) and the radiolabeling procedure is according to Kline et al. supra. Briefly, samples were incubated with 2 nM P. aeruginosa LpxC and 150 nM [3H-Ac]-UDP-3-OR-3-hydroxydecanoyl)-GlcNAc in a total volume of 50 uL for 90 min at room temperature. Reactions were carried out in 96-well polypropylene plates in 50 mM sodium phosphate buffer, pH 7.5, containing 1 mg/mL BSA. Reactions were stopped by the addition of 180 uL of a 3% suspension of activated charcoal powder in 100 mM sodium acetate, pH 7.5. Supernatants were clarified by centrifugation. A portion of the clarified supernatant, containing the enzymatically released [3H]-acetate, was transferred to opaque white 96-well plates containing scintillation fluid. The radioactivity was measured in a Perkin-Elmer/Wallac Trilux Microbeta counter.

[6] = tested on: Pseudomonas aeruginosa cystic fibrosis isolate 3224; experiment: MIC vs cystic fibrosis isolate of P. aeruginosa 3224; assay type: cell-based; settings: strain 3224, Tobra R, LpxC inhibitors, MIC key class
Experimental: as §3
as §2, with “MIC.” for “MIC. Performance of the assay was monitored by the use of laboratory quality-control strains against tobramycin, that has a defined MIC spectrum, in accordance with NCCLS guidelines.”

Row | SMILES | MIC (E. coli 25922) | MIC (Proteus mirabilis) | MIC (Serratia marcescens) | MIC (Klebsiella pneumoniae) | MIC [1] | MIC (Enterobacter cloacae) | MIC [2] | MIC (P. aeruginosa 27853) | MIC [3] | MIC [4] | MIC ([5]; P. aer 12307) | MIC ([5]; P. aer 27853) | MIC ([5]; P. aer psa-6b) | MIC ([5]; PAO1, P. aer. PAO1) | MIC (Burkholderia cepacia) | IC50 (P. aeruginosa LpxC) | MIC [6]
1 | C[C@@H](O)[C@H](NC(=O)c1ccc(-c2ccc(Br)cc2)cc1)C(=O)NO [Example 315, 4′-bromo-N-{(1S,2R)-2-hydroxy-1-[(hydroxyamino)carbonyl]propyl}-1,1′-biphenyl-4-carboxamide] | < 6.25 mg/L | > 50 mg/L | 6.25 to 50 mg/L (≈ 15.9 to 127 µM) | > 50 mg/L | < 6.25 mg/L | < 6.25 mg/L | < 6.25 mg/L | < 6.25 mg/L | < 6.25 mg/L | < 6.25 mg/L | < 6.25 mg/L | < 6.25 mg/L | < 6.25 mg/L | < 6.25 mg/L | < 6.25 mg/L | < 100 nM | < 6.25 mg/L
2 | NC[C@H](NC(=O)c1ccc(C#CC#Cc2ccccc2)cc1)C(=O)NO [Example 481, N-[(1S)-1-(aminomethyl)-2-(hydroxyamino)-2-oxoethyl]-4-(4-phenylbuta-1,3-diynyl)benzamide] | < 6.25 mg/L | < 6.25 mg/L | < 6.25 mg/L | < 6.25 mg/L | < 6.25 mg/L | < 6.25 mg/L | < 6.25 mg/L | < 6.25 mg/L | < 6.25 mg/L | < 6.25 mg/L | < 6.25 mg/L | < 6.25 mg/L | < 6.25 mg/L | < 6.25 mg/L | 6.25 to 50 mg/L (≈ 18 to 144 µM) | < 100 nM | < 6.25 mg/L
3 | NC[C@H](NC(=O)c1ccc(C#Cc2ccc(NC(=O)CNC3CC3)cc2)cc1)C(=O)NO [Example 516, N-[(1S)-1-(aminomethyl)-2-(hydroxyamino)-2-oxoethyl]-4-[(4-{[(cyclopropylamino)acetyl]amino}phenyl)ethynyl]benzamide] | < 6.25 mg/L | > 50 mg/L | < 6.25 mg/L | > 50 mg/L | < 6.25 mg/L | 6.25 to 50 mg/L (≈ 14.4 to 115 µM) | < 6.25 mg/L | < 6.25 mg/L | < 6.25 mg/L | < 6.25 mg/L | < 6.25 mg/L | < 6.25 mg/L | < 6.25 mg/L |  | > 50 mg/L | < 100 nM | < 6.25 mg/L
4 | C[C@@H](O)[C@H](NC(=O)c1ccc(C#CC#Cc2ccc(NC(=O)CNc3ccccc3)cc2)cc1)C(=O)NO [Example 777, N-{(1S,2R)-2-hydroxy-1-[(hydroxyamino)carbonyl]propyl}-4-[4-(4-{[(phenylamino)acetyl]amino}phenyl)buta-1,3-diynyl]benzamide] | < 6.25 mg/L | < 6.25 mg/L | < 6.25 mg/L | < 6.25 mg/L | < 6.25 mg/L | < 6.25 mg/L | < 6.25 mg/L | < 6.25 mg/L | < 6.25 mg/L | < 6.25 mg/L | < 6.25 mg/L | < 6.25 mg/L | 6.25 to 50 mg/L (≈ 12.2 to 97.9 µM) |  | < 6.25 mg/L | < 100 nM | < 6.25 mg/L
